Measured values published in paper PMC10873626, “Acceleration of infectious disease drug discovery and development using a humanized model of drug metabolism” (Proceedings of the National Academy of Sciences of the …, 2024).
Where two headings read alike, the source gives them in different places.

Tests used:
M. tuberculosis H37Rv [1] = experiment: Acute M. tuberculosis infection efficacy model in 8HUM (lung CFU); type: in vivo, Mycobacterium tuberculosis; details: 8HUM, efavirenz co-administration
M. tuberculosis H37Rv [2] = experiment: Acute M. tuberculosis infection efficacy model in WT mice (lung CFU); type: in vivo, Mycobacterium tuberculosis; details: efavirenz co-administration
in vivo [3] = details: female, 8HUM, mouse
in vivo [4] = details: female, C57BL/6J, mouse
[5] = human, in vivo; cited from earlier work
CYP = details: cited from earlier work
CYP3A4 = experiment: Hepatic CYP3A4 induction in 8HUM (Western blot); type: in vivo, mouse; details: efavirenz 20 and 40 mg/kg QD
Method: Microsomal samples were adjusted to 1 mg/mL in LDS sample buffer (Life Technologies) for loading of 10 µg total protein into each well and electrophoresis through 10% acrylamide gels for 1 h at 150 V, followed by transfer onto nitrocellulose membranes. Primary antibodies used for immunoblotting were anti-CYP3A4 (458234, BD Biosciences) and anti-GRP78 loading control (ab21685, Abcam). Pooled HLM material was the same as used in microsomal incubations. Loading control is not provided for Fig. 1B, as the comparison is between human and murine samples.
Mouse hepatic microsomes were prepared by homogenization of freshly-isolated liver in ice-cold SET buffer (0.25 M sucrose, 5 mM EDTA, and 20 mM Tris-HCL, pH 7.4) to make a 10% (w/v) homogenate solution (9 ml SET buffer/1 g liver) using a Polytron PT-MR-2100 homogenizer. Liver homogenates were centrifuged at 2000 rpm (Sorvall RTH-250 rotor) for 10 minutes at 4 °C and the supernatant then centrifuged at 12000 rpm (Sorvall SS-34 rotor) for 20 minutes at 4 °C. The resulting supernatant was centrifuged at 29130 rpm (Sorvall TFT-45.6 rotor) for 90 minutes at 4 °C and the microsomal pellets were resuspended in ice-cold SET buffer for storage at –70 °C.
Primary hepatocytes were freshly prepared from 8HUM using a modified version of Charni-Natan and Goldstein’s STAR Protocol(1). Following termination by cervical dislocation and femoral vessel cut […]

[6] = microsomes
[7] = mouse, in vivo
M. tuberculosis = details: cited from earlier work
[8] = mouse, microsomes
[9] = human, 30 min, 5 µM, pH 7.4
[10] = mouse, microsomes; remark: listed apart in the source
[11] = hepatocytes
[12] = mouse, hepatocytes
[13] = mouse, hepatocytes; remark: listed apart in the source
in vivo [14] = details: female, 8HUM, mouse, po
in vivo [15] = details: female, mouse, po

## COc1nc2ccc(Br)cc2cc1[C@@H](c1ccccc1)[C@@](O)(CCN(C)C)c1cccc2ccccc12 [Bedaquiline]
M. tuberculosis H37Rv [1]
  impact of efavirenz on efficacy of bedaquiline: no impact
M. tuberculosis H37Rv [2]
  decrease in efficacy of bedaquiline with efavirenz: 1.3 log CFU
In vivo [3]
  AUC(0-t): 19100 ng·h/mL
In vivo [4]
  AUC(0-t): 2930 ng·h/mL
[5]
  terminal half-life: 5.5 mo
CYP
  CYP interaction: Substrate: 3A4

## O=C1Nc2ccc(Cl)cc2[C@@](C#CC2CC2)(C(F)(F)F)O1 [Efavirenz]
CYP3A4
  induction of hepatic CYP3A4: approximately threefold
[6]
  CLint, Human: 0.5 mL/min/g liver
CYP
  CYP interaction: Inducer: 3A4
  CYP interaction: Substrate: 2B6

## CNCC[C@@](O)(c1cccc2ccccc12)[C@H](c1ccccc1)c1cc2cc(Br)ccc2nc1OC [NDM-bedaquiline, N-desmethyl bedaquiline]
[7]
  impact of efavirenz on PK: little impact
M. tuberculosis
  potency of metabolite relative to parent compound: approximately fivefold less potent

## Cc1c(O)cccc1C(=O)N[C@@H](CSc1ccccc1)[C@H](O)CN1C[C@H]2CCCC[C@H]2C[C@H]1C(=O)NC(C)(C)C [Nelfinavir]
[6]
  CLint, Human: 50 mL/min/g liver
[8]
  CLint, WT: 50 mL/min/g liver
[9]
  metabolites detected: 18
CYP
  CYP interaction: Inhibitor: 3A4

## CO[C@H]1/C=C/O[C@@]2(C)Oc3c(C)c(O)c4c(c3C2=O)C2=NC3(CCN(CC(C)C)CC3)NC2=C(NC(=O)/C(C)=C\C=C\[C@H](C)[C@H](O)[C@@H](C)[C@@H](O)[C@@H](C)[C@H](OC(C)=O)[C@@H]1C)C4=O [Rifabutin]
[6]
  CLint, Human: 1.1 mL/min/g liver
[10]
  CLint, CypC4KO: 0.5 mL/min/g liver
[11]
  CLint, Human: 1 mL/min/g liver
[12]
  CLint, 8HUM: 0.7 mL/min/g liver
[13]
  CLint, WT: 0.5 mL/min/g liver
In vivo [14]
  CL/F: 4.03 mL/min/kg
In vivo [15]
  CL/F: 24.8 mL/min/kg
CYP
  CYP interaction: Substrate: 3A4
